In patent US20240050943A1, “MULTI-VOLUME MICROCHAMBER-BASED MICROFLUIDIC PLATFORM AND USE THEREOF” (CORNELL UNIVERSITY, priority 2020, published 2024):

Tests used:
[1] = tested on: GFP-labeled E. coli 541-15; test: Antibiotic susceptibility test (AST) in the EL-MVM^2 microfluidic platform, resazurin fluorescence / GFP readout; format: cell-based; details: GFP-labeled E. coli 541-15, 4.5 hours of incubation; intermediate sub-GCP = 1.12-12.54 μg/mL
[2] = tested on: E. coli 541-15; test: Gold standard broth microdilution (BMD) test, OD600; format: cell-based; details: E. coli 541-15, 1×10^6 CFU/mL

## Gentamicin
[1]
  Turning point of GFP-labeled bacterial growth from partially to totally inhibited: intermediate concentration range
[2]
  MIC (broth microdilution, OD600 nm, 80% reduction): 5.00 µg/mL
